Assay results: patent US10369139B2, “Crystalline compound as semicarbazide-sensitive amine oxidase (SSAO) enzyme inhibitor” (BENEVOLENTAI CAMBRIDGE LIMITED, priority 2015, dated 2019)
Counter-ions that a name gives are not always drawn.

Columns and labels:
Format in all cases: physicochemical
[1] = Hygroscopicity during long term storage, assessed by Karl Fischer titration; conditions: double LDPE liners, desiccant pouch, heat-sealed foil bag, HDPE keg
Procedure: The water content of each sample was measured on a Mettler Toledo DL39 Coulometer using Hydranal Coulomat AG reagent and an argon purge. Weighed solid samples were introduced into the vessel on a platinum TGA pan which was connected to a subaseal to avoid water ingress. Approx 10 mg of sample was used per titration and duplicate determinations were made.
(§1) Crystalline (3S)-Tetrahydrofuran-3-yl (4S)-4-isopropyl-1,4,6,7-tetrahydro-5H-imidazo[4,5-c]pyridine-5-carboxylate mesylate was also assessed for stability and hygroscopicity when dispensed in 3 g aliquots in double LDPE liners, sealed with cable tie and placed, with a desiccant pouch into a foil bag, which was subsequently heat-sealed. The foil bag was then placed into an HDPE keg fitted with an HDPE lid. These conditions mirror typical GMP level storage conditions. Stability was assessed by HPLC and hygroscopicity was assessed by Karl Fisher (KF) titration.

[2] = Hygroscopicity on storage at controlled temperature/relative humidity (Table 2)
From the text: Crystalline mesylate salt was isolated and characterised using some or all of XRPD, ^1H NMR, DSC, TGA, GVS, IC, PLM, HSM, HPLC and KF (see Table 2).

[3] = Stability during long term storage, assessed by HPLC; conditions: double LDPE liners, desiccant pouch, heat-sealed foil bag, HDPE keg
Procedure: Purity analysis was performed on an Agilent HP1100 series system equipped with a diode array detector and using ChemStation software vB.02.01-SR1 using the method detailed below (Table 1).
as §1

[4] = after 6 months at 40° C./75% RH

Water uptake (KF) [1, 4] [%] | Water uptake (KF) ([1]; over 3 years at 25° C./60% RH) | Hygroscopicity (time after which the sample deliquesced) ([2]; 40° C./75% RH) [days] | Stability of the crystalline salt on storage (reduced hygroscopicity) ([2]; temperature of 40° C., relative humidity of 75%) | Degradation (HPLC) [3, 4] [%] | Degradation (HPLC) ([3]; over 3 years at 25° C./60% RH) [%] | Hygroscopicity (time in which the sample deliquesced) ([2]; 25° C./60% RH) [° C./60% RH in <24 h] | SMILES
0.1 | no water uptake | 3 | up to three days | 0.1 | 0.1 | – | CC(C)[C@H]1c2[nH]cnc2CCN1C(=O)O[C@H]1CCOC1 [Crystalline mesylate salt, (3S)-Tetrahydrofuran-3-yl (4S)-4-isopropyl-1,4,6,7-tetrahydro-5H-imidazo[4,5-c]pyridine-5-carboxylate, Methananesulfonic Acid Salt]
– | – | – | – | – | – | 25 | CC(C)[C@H]1c2[nH]cnc2CCN1C(=O)O[C@H]1CCOC1 [Free base, (3S)-Tetrahydrofuran-3-yl (4S)-4-isopropyl-1,4,6,7-tetrahydro-5H-imidazo[4,5-c]pyridine-5-carboxylate]
